Measured values taken from ChEMBL document CHEMBL5543162, “Discovery of a Novel Orally Bioavailable FLT3-PROTAC Degrader for Efficient Treatment of Acute Myeloid Leukemia and Overcoming Resistance of FLT3 Inhibitors” (J Med Chem, 2024).
One block for each compound: values may come before it. The source made the active and inactive calls. No cut-off for these calls is given here.

What was measured:
[1] = system: Protein cereblon/Receptor-type tyrosine-protein kinase FLT3 (Homo sapiens), P36888+Q96SW2 [UNDEFINED MUTATION]; assay: PROTAC activity at CRBN/FLT3-ITD mutant in human MV4-11 cells assessed as protein degradation at 100 nM incubated for 8 hrs by Western blot analysis; format: cell-based
[2] = system: Protein cereblon/Receptor-type tyrosine-protein kinase FLT3 (Homo sapiens), P36888+Q96SW2 [UNDEFINED MUTATION]; assay: PROTAC activity at CRBN/FLT3-ITD mutant in human MOLM-13 cells assessed as protein degradation at 100 nM incubated for 8 hrs by Western blot analysis; format: cell-based
MV4-11 [3] = assay: Induction of apoptosis in human MV4-11 cells at 50 nM incubated for 24 hrs by Annexin V-FITC/PI staining based flow cytometry; format: functional, cell-based
MOLM-13 [4] = assay: Induction of apoptosis in human MOLM-13 cells at 50 nM incubated for 24 hrs by Annexin V-FITC/PI staining based flow cytometry; format: functional, cell-based
MV4-11 [5] = assay: Antiproliferative activity against human MV4-11 cells expressing FLT3-ITD mutant incubated for 48 hrs by CCK8 assay; format: functional, cell-based; details: MV4-11, 48 h
MOLM-13 [6] = assay: Antiproliferative activity against human MOLM-13 cells incubated for 48 hrs by CCK8 assay; format: functional, cell-based; details: MOLM-13, 48 h
[7] = Antiproliferative activity against human THP-1 cells expressing wild-type FLT3 incubated for 48 hrs by CCK8 assay; format: toxicity, cell-based
[8] = Antiproliferative activity against human U-937 cells expressing wild-type FLT3 incubated for 48 hrs by CCK8 assay; format: toxicity, cell-based
[9] = Antiproliferative activity against human HL-60 cells expressing wild-type FLT3 incubated for 48 hrs by CCK8 assay; format: toxicity, cell-based
MV4-11 [10] = assay: Antitumor activity against human MV4-11 cells xenografted in nu/nu mouse at 1.6 mg/kg, po administered daily for 2 weeks relative to control; format: functional; details: MV4-11, 336 h, read-out: TGI
MOLM-13 [11] = assay: Antiproliferative activity against Sunitinib-resistant human MOLM-13 cells incubated for 48 hrs by CCK8 assay; format: functional, cell-based; details: MOLM-13, 48 h
MOLM-13 [12] = assay: Antiproliferative activity against Quizartinib-resistant human MOLM-13 cells incubated for 48 hrs by CCK8 assay; format: functional, cell-based; details: MOLM-13, 48 h
[13] = Stability in human liver microsomes assessed as half life; format: ADME, Microsome
[14] = Stability in dog liver microsomes assessed as half life; format: ADME, Canis lupus familiaris, Microsome
[15] = Stability in monkey liver microsomes assessed as half life; format: ADME, Microsome; details: chlorocebus aethiops
[16] = Stability in rat liver microsomes assessed as half life; format: ADME, Microsome
[17] = Stability in mouse liver microsomes assessed as half life; format: ADME, Microsome
[18] = Stability in human liver microsomes assessed as intrinsic clearance; format: ADME, Microsome; details: read-out: CLH
[19] = Stability in dog liver microsomes assessed as intrinsic clearance; format: ADME, Canis lupus familiaris, Microsome; details: read-out: CLH
[20] = Stability in monkey liver microsomes assessed as intrinsic clearance; format: ADME, Microsome; details: chlorocebus aethiops, read-out: CLH
[21] = Stability in rat liver microsomes assessed as intrinsic clearance; format: ADME, Microsome; details: read-out: CLH
[22] = Stability in mouse liver microsomes assessed as intrinsic clearance; format: ADME, Microsome; details: read-out: CLH
[23] = Stability in human liver microsomes assessed as hepatic clearance; format: ADME, Microsome
[24] = Stability in dog liver microsomes assessed as hepatic clearance; format: ADME, Canis lupus familiaris, Microsome
[25] = Stability in monkey liver microsomes assessed as hepatic clearance; format: ADME, Microsome; details: chlorocebus aethiops
[26] = Stability in rat liver microsomes assessed as hepatic clearance; format: ADME, Microsome
[27] = Stability in mouse liver microsomes assessed as hepatic clearance; format: ADME, Microsome

Chain of Protein cereblon/Receptor-type tyrosine-protein kinase FLT3 (Homo sapiens), P36888+Q96SW2 [UNDEFINED MUTATION] (P36888 whole entry, looked up, change not shown): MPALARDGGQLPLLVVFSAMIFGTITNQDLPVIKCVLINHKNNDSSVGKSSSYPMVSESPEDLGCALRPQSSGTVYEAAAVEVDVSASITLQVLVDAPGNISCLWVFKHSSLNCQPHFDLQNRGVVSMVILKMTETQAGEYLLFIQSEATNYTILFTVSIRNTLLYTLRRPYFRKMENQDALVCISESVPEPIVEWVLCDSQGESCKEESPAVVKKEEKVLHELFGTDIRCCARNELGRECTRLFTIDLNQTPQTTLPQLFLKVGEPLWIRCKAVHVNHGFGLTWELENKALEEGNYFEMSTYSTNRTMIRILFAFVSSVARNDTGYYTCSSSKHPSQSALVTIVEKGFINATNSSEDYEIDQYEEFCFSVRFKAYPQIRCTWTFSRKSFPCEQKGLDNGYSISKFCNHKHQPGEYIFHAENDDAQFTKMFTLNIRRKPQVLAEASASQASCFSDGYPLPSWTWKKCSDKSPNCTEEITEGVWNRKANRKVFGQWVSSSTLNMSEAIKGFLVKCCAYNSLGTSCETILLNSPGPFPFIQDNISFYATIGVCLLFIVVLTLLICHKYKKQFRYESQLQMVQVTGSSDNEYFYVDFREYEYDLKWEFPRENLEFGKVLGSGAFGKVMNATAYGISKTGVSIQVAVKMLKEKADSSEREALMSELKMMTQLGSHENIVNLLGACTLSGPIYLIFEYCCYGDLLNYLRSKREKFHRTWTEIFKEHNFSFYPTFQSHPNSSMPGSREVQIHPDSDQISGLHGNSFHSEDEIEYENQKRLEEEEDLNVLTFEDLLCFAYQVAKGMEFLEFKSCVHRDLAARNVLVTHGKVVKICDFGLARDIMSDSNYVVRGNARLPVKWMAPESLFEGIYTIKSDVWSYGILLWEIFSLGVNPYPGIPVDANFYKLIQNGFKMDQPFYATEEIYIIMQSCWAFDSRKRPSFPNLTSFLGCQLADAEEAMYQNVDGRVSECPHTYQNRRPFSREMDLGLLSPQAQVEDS
Chain of Protein cereblon/Receptor-type tyrosine-protein kinase FLT3 (Homo sapiens), P36888+Q96SW2 [UNDEFINED MUTATION] (Q96SW2 whole entry, looked up, change not shown): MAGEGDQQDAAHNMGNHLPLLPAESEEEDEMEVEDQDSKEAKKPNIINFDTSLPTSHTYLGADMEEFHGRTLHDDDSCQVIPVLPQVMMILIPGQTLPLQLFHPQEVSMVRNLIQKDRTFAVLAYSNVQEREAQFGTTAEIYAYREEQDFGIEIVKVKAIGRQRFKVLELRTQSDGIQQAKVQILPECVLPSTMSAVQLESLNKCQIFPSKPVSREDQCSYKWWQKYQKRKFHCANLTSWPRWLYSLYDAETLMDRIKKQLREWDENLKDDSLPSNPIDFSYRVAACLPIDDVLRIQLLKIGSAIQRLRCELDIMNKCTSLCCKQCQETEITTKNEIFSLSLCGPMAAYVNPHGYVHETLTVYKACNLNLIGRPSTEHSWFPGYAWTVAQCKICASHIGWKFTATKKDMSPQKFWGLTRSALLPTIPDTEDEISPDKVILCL

SMILES: Cc1c(NC(=O)CN2CCN(CC3CCN(c4ccc5c(c4)C(=O)N(C4CCC(=O)N(C)C4=O)C5=O)CC3)CC2)c[nH]c1/C=C1\C(=O)Nc2ccc(F)cc21 (stereo unspecified)
- Activity [1]: inactive
- Activity [2]: inactive
- Activity (MV4-11 [3]): inactive
- Activity (MOLM-13 [4]): inactive

- IC50 (MV4-11 [5]): 141 nM
- IC50 (MOLM-13 [6]): 206 nM
SMILES: Cc1c(NC(=O)CN2CCN(C(=O)CCCCCCNc3cccc4c3C(=O)N(C3CCC(=O)NC3=O)C4=O)CC2)c[nH]c1/C=C1\C(=O)Nc2ccc(F)cc21 (stereo unspecified)

- IC50 (MV4-11 [5]): 262 nM
- IC50 (MOLM-13 [6]): 399 nM
SMILES: Cc1ncsc1-c1ccc(CNC(=O)[C@H]2C[C@H](O)CN2C(=O)[C@@H](NC(=O)CCCCCCC(=O)N2CCN(CC(=O)Nc3c[nH]c(/C=C4\C(=O)Nc5ccc(F)cc54)c3C)CC2)C(C)(C)C)cc1

- IC50 (MV4-11 [5]): 231 nM
- IC50 (MOLM-13 [6]): 299 nM
SMILES: Cc1c(NC(=O)CN2CCN(CCCCCCCCC(=O)Nc3cccc4c3C(=O)N(C3CCC(=O)NC3=O)C4=O)CC2)c[nH]c1/C=C1\C(=O)Nc2ccc(F)cc21 (stereo unspecified)

- IC50 (MV4-11 [5]): 106 nM
- IC50 (MOLM-13 [6]): 335 nM
SMILES: Cc1c(NC(=O)CN2CCN(C3CCN(c4ccc5c(c4)C(=O)N(C4CCC(=O)NC4=O)C5=O)CC3)CC2)c[nH]c1/C=C1\C(=O)Nc2ccc(F)cc21 (stereo unspecified)

- IC50 (MV4-11 [5]): 230 nM
- IC50 (MOLM-13 [6]): > 1000 nM
SMILES: Cc1c(NC(=O)CN2CCN(C(=O)CCCC(=O)NCCNc3cccc4c3C(=O)N(C3CCC(=O)NC3=O)C4=O)CC2)c[nH]c1/C=C1\C(=O)Nc2ccc(F)cc21 (stereo unspecified)

- IC50 (MV4-11 [5]): 170 nM
- IC50 (MOLM-13 [6]): 358 nM
SMILES: Cc1c(NC(=O)CN2CCN(C(=O)CCCCCCCC(=O)NCCNc3cccc4c3C(=O)N(C3CCC(=O)NC3=O)C4=O)CC2)c[nH]c1/C=C1\C(=O)Nc2ccc(F)cc21 (stereo unspecified)

- IC50 (MV4-11 [5]): 24 nM
- IC50 (MOLM-13 [11]): 811 nM
- IC50 (MOLM-13 [12]): 1520 nM
- half-life [13]: 3.21 h
- half-life [14]: 1.5 h
- half-life [15]: 0.983 h
- half-life [16]: 1.01 h
- half-life [17]: 0.758 h
- CLint scaled [18]: 8.32 mL/min/kg
- CLint scaled [19]: 22.1 mL/min/kg
- CLint scaled [20]: 31.7 mL/min/kg
- CLint scaled [21]: 41 mL/min/kg
- CLint scaled [22]: 120 mL/min/kg
- CLhep predicted [23]: 5.93 mL/min/kg
- CLhep predicted [24]: 12.9 mL/min/kg
- CLhep predicted [25]: 18.4 mL/min/kg
- CLhep predicted [26]: 27.7 mL/min/kg
- CLhep predicted [27]: 51.4 mL/min/kg
SMILES: Cc1c(NC(=O)CCN2CCCC2)c[nH]c1/C=C1\C(=O)Nc2ccc(F)cc21
- IC50 at 48 h [7]: 1500 nM
- IC50 at 48 h [8]: 2780 nM
- IC50 at 48 h [9]: 6450 nM
- inhibition in vivo at 1.6 mg/kg (MV4-11 [10]): 39.8%

- IC50 (MV4-11 [5]): 51.7 nM
- IC50 (MOLM-13 [6]): 249 nM
SMILES: Cc1c(NC(=O)CN2CCN(C3CC4(CCN(c5ccc6c(c5)C(=O)N(C5CCC(=O)NC5=O)C6=O)CC4)C3)CC2)c[nH]c1/C=C1\C(=O)Nc2ccc(F)cc21 (stereo unspecified)

- IC50 (MV4-11 [5]): 130 nM
- IC50 (MOLM-13 [6]): 276 nM
SMILES: Cc1c(NC(=O)CN2CCN(CCCCCCCCCOc3cccc4c3C(=O)N(C3CCC(=O)NC3=O)C4=O)CC2)c[nH]c1/C=C1\C(=O)Nc2ccc(F)cc21 (stereo unspecified)

- IC50 (MOLM-13 [11]): 1460 nM
- IC50 (MOLM-13 [12]): > 1000 nM
SMILES: CCN(CC)CCNC(=O)c1c(C)[nH]c(/C=C2\C(=O)Nc3ccc(F)cc32)c1C [SUNITINIB]

- IC50 (MV4-11 [5]): 372 nM
- IC50 (MOLM-13 [6]): > 1000 nM
SMILES: Cc1c(NC(=O)CN2CCN(C(=O)CCCCCCCCCCCNc3cccc4c3C(=O)N(C3CCC(=O)NC3=O)C4=O)CC2)c[nH]c1/C=C1\C(=O)Nc2ccc(F)cc21 (stereo unspecified)

- IC50 (MV4-11 [5]): 201 nM
- IC50 (MOLM-13 [6]): 657 nM
SMILES: Cc1c(NC(=O)CN2CCN(C(=O)CCCCC(=O)NCCNc3cccc4c3C(=O)N(C3CCC(=O)NC3=O)C4=O)CC2)c[nH]c1/C=C1\C(=O)Nc2ccc(F)cc21 (stereo unspecified)

- IC50 (MV4-11 [5]): 288 nM
- IC50 (MOLM-13 [6]): 533 nM
SMILES: Cc1c(NC(=O)CN2CCN(C(=O)CCCCCCC(=O)NCCNc3cccc4c3C(=O)N(C3CCC(=O)NC3=O)C4=O)CC2)c[nH]c1/C=C1\C(=O)Nc2ccc(F)cc21 (stereo unspecified)

- IC50 (MV4-11 [5]): 169 nM
- IC50 (MOLM-13 [6]): 208 nM
SMILES: Cc1c(NC(=O)CN2CCN(C(=O)CCCCCNc3cccc4c3C(=O)N(C3CCC(=O)NC3=O)C4=O)CC2)c[nH]c1/C=C1\C(=O)Nc2ccc(F)cc21 (stereo unspecified)

- IC50 (MV4-11 [5]): 194 nM
- IC50 (MOLM-13 [6]): 336 nM
SMILES: Cc1c(NC(=O)CN2CCN(CC3CCN(c4cccc5c4C(=O)N(C4CCC(=O)NC4=O)C5=O)CC3)CC2)c[nH]c1/C=C1\C(=O)Nc2ccc(F)cc21 (stereo unspecified)

- IC50 (MV4-11 [5]): 191 nM
- IC50 (MOLM-13 [6]): > 1000 nM
SMILES: Cc1ncsc1-c1ccc(CNC(=O)[C@@H]2C[C@@H](O)CN2C(=O)[C@H](NC(=O)CCCCCCCC(=O)N2CCN(CC(=O)Nc3c[nH]c(/C=C4\C(=O)Nc5ccc(F)cc54)c3C)CC2)C(C)(C)C)cc1
